Source: patent US20240041036A1, “BIO PESTICIDAL COMPOSITION CONTAINS NOVEL NONANOATE ESTERS OF SUGARS AND SUGAR ALCOHOLS TO CONTROL LEPIDOPTERA, HEMIPTERA AND THYSANOPTERA INSECTS” (FERTIS INDIA PVT. LTD., priority 2020, published 2024)

Key:
Assay in all cases: Field experiment on cotton sucking insects, population count
Type in all cases: in vivo
[1] = test system: jassids (Amrascabi guttula); conditions: for Jassids population count after spray: 0.5 g/L
Procedure: (§1) A field experiment was conducted with EN2 formulation on cotton sucking insects viz. thrips (Scirtothrips dorsails), aphids (Aphis gossypii), jassids (Amrascabi guttula) and whitefly (Bemisia tabaci), as shown in FIG. 25. Two benchmark insecticides were used as control viz. Thiamethoxam (a broad spectrum insecticide) and Acetamiprid (effective to cotton sucking pest). […] Initially the population of the pests (pre count) was assessed before spraying. […] The number of major sucking pests (2 leaves from top, one from middle and 2 leaves from bottom) in 5 tagged plants/treatment was recorded at 24 h before the spray and after 24 h, 3rd, 6th and 9th day after spray. The data was pooled and average population calculated.

[2] = test system: thrips (Scirtothrips dorsails); conditions: for Thrips population count after spray: 0.5 g/L; for Reduction of thrips population: after 24 h, dose not stated
Procedure: as §1, with “pest). Three doses of EN 2 formulation (for 1 kg formulation EN 800 g+Arginine 80 g+Silwet20 g+Tergitol 20 g+Water 150 g) was used for this study viz.” for “pest).”

[3] = test system: whitefly (Bemisia tabaci); conditions: 0.5 g/L
Procedure: as §1, with “pest). Three doses of EN 2 formulation (for 1 kg formulation EN 800 g+Arginine 80 g+Silwet20 g+Tergitol 20 g+Water 150 g) was used for this study viz.” for “pest).”

Row | SMILES | Jassids population count after spray ([1]; 3rd day after spray) | Jassids population count after spray ([1]; 6th day after spray) | Jassids population count after spray ([1]; 9th day after spray) | Jassids population count after spray ([1]; 24 hrs after spray) | Reduction of Jassids population ([1]; 3rd day after the spray) [%] | Reduction of Jassid population ([1]; 9th day) [%] | Thrips population count after spray ([2]; 3rd day after spray) | Thrips population count after spray ([2]; 6th day after spray) | Thrips population count after spray ([2]; 9th day after spray) | Thrips population count after spray ([2]; 24 h after spray) | Reduction of thrips population [2] [%] | Whitefly population count after spray ([3]; 3rd day after spray) | Whitefly population count after spray ([3]; 6th day after spray) | Whitefly population count after spray ([3]; 9th day after spray) | Whitefly population count after spray ([3]; 24 h after spray)
1 | CN1COCN(Cc2cnc(Cl)s2)/C1=N\[N+](=O)[O-] [Thiamethoxam] | 3.26 | 2 | 2.73 | 13.66 | 11.8 | 40.6 | 3.46 | 5.33 | 3.76 | 23.7 | 15.9 | 1.86 | 2.46 | 1.7 | 7
2 | C/C(=N\C#N)N(C)Cc1ccc(Cl)nc1 [Acetamiprid] | 3.56 | 2.66 | 3.36 | 14 | – | – | 4.06 | 5.66 | 3.6 | 22.7 | 13.7 | 1.66 | 2.4 | 2.13 | 8.66
